Test results as given in patent publication US8956824B2, “Methods for identifying allosteric modulators of ship polypeptides” (British Columbia Cancer Agency Branch, priority 2006, dated 2015).
Entries after “also recorded” stand apart in the source; their conditions may differ.

Tests used:
[1] = biological target: T1, C2 domain deleted (ΔC2) SHIP1 enzyme (Mus musculus, UniProt Q9ES52, DEL725-860/G861A/K862A/M863A); test: Scintillation proximity assay, ΔC2 SHIP1; assay type: binding; conditions: 5 μCi
T1 construct: Full length, wild-type SHIP1 enzyme (wt) or SHIP1 enzyme in which the PH or C2 domains were deleted; made in house; 293T cells are stated only for the wild-type enzyme
T1 sequence (Q9ES52 with tags, fused parts or gaps DEL725-860/G861A/K862A/M863A limits assumed): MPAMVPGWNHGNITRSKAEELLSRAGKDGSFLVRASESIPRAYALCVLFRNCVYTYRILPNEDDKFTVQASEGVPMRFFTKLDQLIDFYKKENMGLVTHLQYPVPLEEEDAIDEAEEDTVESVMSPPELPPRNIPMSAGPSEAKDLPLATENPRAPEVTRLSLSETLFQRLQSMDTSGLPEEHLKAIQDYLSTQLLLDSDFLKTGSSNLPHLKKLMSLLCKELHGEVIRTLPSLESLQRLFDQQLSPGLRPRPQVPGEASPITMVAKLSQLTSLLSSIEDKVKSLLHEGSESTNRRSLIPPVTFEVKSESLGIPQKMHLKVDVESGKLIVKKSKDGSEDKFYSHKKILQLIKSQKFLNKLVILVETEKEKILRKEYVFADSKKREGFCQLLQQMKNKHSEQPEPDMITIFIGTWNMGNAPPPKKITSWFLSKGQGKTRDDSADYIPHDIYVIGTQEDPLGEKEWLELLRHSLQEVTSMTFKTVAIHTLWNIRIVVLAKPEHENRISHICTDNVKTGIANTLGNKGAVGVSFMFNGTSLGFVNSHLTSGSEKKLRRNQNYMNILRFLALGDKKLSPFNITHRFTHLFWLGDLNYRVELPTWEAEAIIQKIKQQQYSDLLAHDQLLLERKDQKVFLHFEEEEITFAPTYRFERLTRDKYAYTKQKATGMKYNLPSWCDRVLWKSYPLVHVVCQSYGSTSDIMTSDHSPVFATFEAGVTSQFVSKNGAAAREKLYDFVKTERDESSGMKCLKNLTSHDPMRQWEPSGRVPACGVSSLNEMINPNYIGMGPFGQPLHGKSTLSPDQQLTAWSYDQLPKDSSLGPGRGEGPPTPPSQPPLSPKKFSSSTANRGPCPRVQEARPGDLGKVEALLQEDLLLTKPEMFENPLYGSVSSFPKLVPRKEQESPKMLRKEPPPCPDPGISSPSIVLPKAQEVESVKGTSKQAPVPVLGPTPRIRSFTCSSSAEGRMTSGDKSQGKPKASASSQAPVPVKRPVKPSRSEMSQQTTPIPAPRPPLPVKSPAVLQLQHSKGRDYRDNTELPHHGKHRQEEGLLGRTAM
Experimental: (§1) Scintillation Proximity Assays AQX-MN100 was radiolabeled with tritium by GE Healthcare (Piscataway, N.J.) to a specific activity of 42 Ci/mmole. Copper chelate (His-Tag) YSi YSi SPA Scintillation Beads (GE Healthcare ,Piscataway, NJ) were diluted in 0.25% BSA/TBS to 1.5 mg/mL and recombinant, His6-tagged protein added at the indicated concentrations: wild-type (1 pM), ΔC2 SHIP enzyme (1 pM) or C2 domain (10 nM). Protein was allowed to bind 1 h at 23° C., and 250 μg of beads were aliquoted per well of a 96-well plate. 5 μCi of [3H]-AQX-MN100 was added per well, the plate gently agitated for 30 min and the amount of bead associated radioactivity quantified by counting in a Wallac BETAPLATE™ plate scintillation counter. Results are representative of 3 independent experiments.

SHIP1 C2 domain = biological target: T2, SHIP1 C2 domain (Mus musculus, UniProt Q9ES52); test: Scintillation proximity assay, C2 domain; assay type: binding; conditions: C2 domain 10 nM, 5 μCi
T2 construct: Recombinant SHIP1 C2 domain (amino acid residues 725 to 863); made in house; host or cells: E. coli, pET28C
T2 sequence (Q9ES52 725-863): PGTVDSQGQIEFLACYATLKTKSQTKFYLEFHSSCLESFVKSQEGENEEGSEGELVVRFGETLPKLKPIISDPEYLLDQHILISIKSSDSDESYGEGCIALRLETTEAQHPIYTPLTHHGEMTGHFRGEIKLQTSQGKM
Experimental: as §1

LNCaP cells = test: PKB phosphorylation in LNCaP cells; assay type: cell-based; conditions: 30 min treatment; cells do not express SHIP1
Experimental: The non-hemopoietic, prostate cancer LnCAP cell line was treated with AQX-016A or LY294002 for 30 min and cell lysates analyzed for phospho-PKB-Thr 308 or phospho-PKB 473 as described in the Examples. AQX-016A (Molecular Weight 328.24) concentration is indicated in μM.

[2] = tested on: SHIP1+/+ and SHIP1−/− BMMCs; test: IgE+antigen-induced calcium flux in BMMCs; assay type: cell-based, mouse; conditions: 30 min pretreatment, DNP-HSA stimulation
Experimental: Production of SHIP+/+ and SHIP−/− BMMCs and BMnφs. To obtain BMMCs, bone marrow cells were aspirated from 4 to 8 week old C57B16×129Sv mixed background mice and SHIP1+/+ and SHIP1−/− BMMCs prepared as described previously (17). After 8 weeks in IMDM+15% FCS (StemCell Technologies, Vancouver, Canada)+150 μM MTG+30 ng/ml IL-3 (BMMC medium) more than 99% of the cells were c-kit and FcεR1 positive as determined by flow cytometry with FITC-labeled anti-c-kit (BD Pharmingen, Mississauga, Canada) and FITC-labeled IgE (anti-Epo), respectively. BMmφs from SHIP1+/+ and SHIP1−/− mice were obtained and maintained in IMDM supplemented with 10% FCS, 150 μM MTG, 2% C127 cell conditioned medium as a source of macrophage colony stimulating factor (MCSF) (BMmφ medium).
Stimulation of BMMCs by FcεR1 crosslinking. SHIP1+/+ and SHIP1−/− BMMCs were pre-loaded overnight in BMMC medium lacking IL-3 with 0.1 μg/ml anti-DNP IgE (SPE-7, Sigma, Oakville, Ont). […] Calcium influx was then monitored by spectrofluorometry as described previously (19). […] Total cell lysates were then prepared and analyzed for phospho-PKB, phospho-p38MAPK, phospho-MAPK, Grb-2 (Cell Signalling, Mississauga, Ont) and SHIP1 (18) by immunoblot analysis as described previously (20). […]

SMILES: Cc1cc(O)cc2c1[C@]1(C)CC[C@H]3C(C)(C)CCC[C@]3(C)[C@H]1C2 [AQX-MN100]
- binding of [3H]-AQX-MN100 to SHIP1 lacking its C2 domain [1]: C2 domain is required for SHIP1 to bind; also recorded: requires the C2 domain to bind
- binding of [3H]-AQX-MN100 to recombinant C2 domain (SHIP1 C2 domain): could directly bind; also recorded: reproducibly observed to bound; also recorded: binds

SMILES: Cc1cc(O)c(O)c2c1[C@]1(C)CC[C@H]3C(C)(C)CCC[C@]3(C)[C@H]1C2 [AQX-016A]
- PKB phosphorylation in LNCaP cells (LNCaP cells): had no effect; also recorded: but not AQX-016A inhibits PKB phosphorylation
- IgE+antigen-induced calcium entry, SHIP1+/+ vs SHIP1−/− mast cells [2]: inhibited IgE+antigen-induced calcium entry to a substantially greater degree in SHIP1+/+ than in SHIP1−/−
